Structures can show the parent of a compound that is named as a salt.
How the values were obtained:
[1] = system: LTB4 production in murine blood (LTA4H); assay: LTB4 production by calcium ionophore-stimulated murine blood for LTA4H inhibitor activity; assay type: cell-based, CD-1 mice; settings: Mus musculus; murine blood diluted 1 in 15, A23187 stimulated; single determination or average; mark after value = form tested: ′ free base, ″ hydrochloride, ^ formate; read-out: IC50
Method: Assay 2: LTB4 Production by Calcium Ionophore-Stimulated Murine Blood for LTA4H Inhibitor Activity
CD-1 mice were sacrificed, and blood was collected in heparin-containing syringes by cardiac puncture. […] After the microtiter plate contents were incubated for 15 min at 37° C. in a humidified incubator, calcium ionophore A23187 (Sigma Chemical Co., St. Louis, Mo.) was added to each sample well (final concentration=7 μg/mL). The incubation was continued under the same conditions for an additional 30 min to allow LTB4 formation. The reaction was terminated by centrifugation (833×g, 10 min at 4° C.), and supernatants were analyzed for LTB4 by a commercially available enzyme-linked immunoassay (Cayman Chemical Co.) according to the manufacturer's instructions. Positive controls, under essentially identical conditions but without addition of an inhibitor compound, and negative unstimulated controls, containing all assay components except calcium ionophore, were routinely run in each experiment. […] The values presented here are the result of a single determination or an average of two or more determinations.

[2] = target: T1, recombinant human LTA4 hydrolase (rhLTA4H) (Homo sapiens, UniProt P09960); assay: Recombinant human LTA4 hydrolase assay for LTA4 hydrolase inhibitor activity; assay type: biochemical; settings: rhLTA4H, LTB4 by immunoassay; single determination or average of two or more; mark after value = form tested: ′ free base, ″ hydrochloride, ^ formate; read-out: IC50
T1 construct: made in house; host or cells: Spodoptera frugiperda (Sf-9) cells, baculovirus (pFastBac1)
T1 sequence (P09960 1-611): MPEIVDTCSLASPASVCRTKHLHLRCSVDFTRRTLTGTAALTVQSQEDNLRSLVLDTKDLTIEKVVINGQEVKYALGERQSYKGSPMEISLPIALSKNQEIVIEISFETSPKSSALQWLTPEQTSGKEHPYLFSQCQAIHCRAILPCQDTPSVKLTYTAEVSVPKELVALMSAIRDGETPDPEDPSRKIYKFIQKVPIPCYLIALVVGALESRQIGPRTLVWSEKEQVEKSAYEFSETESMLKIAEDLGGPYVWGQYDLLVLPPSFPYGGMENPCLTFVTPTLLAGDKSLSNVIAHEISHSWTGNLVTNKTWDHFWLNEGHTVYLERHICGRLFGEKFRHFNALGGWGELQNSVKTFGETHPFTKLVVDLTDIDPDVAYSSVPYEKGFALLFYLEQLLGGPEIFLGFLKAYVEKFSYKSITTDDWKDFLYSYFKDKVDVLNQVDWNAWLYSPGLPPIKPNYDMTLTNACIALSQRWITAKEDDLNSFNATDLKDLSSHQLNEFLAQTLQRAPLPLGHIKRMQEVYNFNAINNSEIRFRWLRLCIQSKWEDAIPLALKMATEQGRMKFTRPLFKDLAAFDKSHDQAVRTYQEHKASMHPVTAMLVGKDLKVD
Summary of the method: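 LTB4 formation, measured by enzyme immunoassay, was the read-out. The enzyme, recombinant human LTA4H expressed in Sf-9 insect cells (10 ng per reaction), was exposed to compound for 10 min at room temperature before hydrolysed-ester LTA4 substrate was added for 30 min. Enzyme-free negatives were included.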

| IC50 [1] [nM] | IC50 [2] [nM] | Compound |
| --- | --- | --- |
| 104 | 2 | CC(=O)N1C[C@@H]2C[C@H]1CN2Cc1c[nH]c2cc(Oc3nc4ncccc4s3)ccc12 [Example 19, (1S,4S)-1-{5-[6-(Thiazolo[4,5-b]pyridin-2-yloxy)-1H-indol-3-ylmethyl]-2,5-diaza-bicyclo[2.2.1]hept-2-yl}-ethanone] |
| 10 | 95 | c1cnc2nc(Oc3ccc4c(CNCCN5CCOCC5)coc4c3)sc2c1 [Example 306, (2-Morpholin-4-yl-ethyl)-[6-(thiazolo[4,5-b]pyridin-2-yloxy)-benzofuran-3-ylmethyl]-amine formate] |
| 476 | 42 | c1ccc2c(c1)CCN(Cc1c[nH]c3cc(Oc4nc5ccccc5s4)ccc13)C2 [Example 7, 2-[6-(Benzothiazol-2-yloxy)-1H-indol-3-ylmethyl]-1,2,3,4-tetrahydro-isoquinoline] |
| 114 | 5 | O=C(C1CCN(Cc2c[nH]c3cc(Oc4nc5ccccc5s4)ccc23)CC1)N1CCCC1 [Example 23, {1-[6-(Benzothiazol-2-yloxy)-1H-indol-3-ylmethyl]-piperidin-4-yl}-pyrrolidin-1-yl-methanone] |
| 150 | 20 | c1csc(CNCc2coc3cc(Oc4nc5ncccc5s4)ccc23)c1 [Example 300, [6-(Thiazolo[4,5-b]pyridin-2-yloxy)-benzofuran-3-ylmethyl]-thiophen-2-ylmethyl-amine] |
| 40 | 4 | c1cnc2nc(Oc3ccc4c(CN5CCN(c6ccncc6)CC5)coc4c3)sc2c1 [Example 289, 2-[3-(4-Pyridin-4-yl-piperazin-1-ylmethyl)-benzofuran-6-yloxy]-thiazolo[4,5-b]pyridine formate] |
| 350 | 48 | O=C(O)C1CCN(CCc2coc3cc(Oc4nc5ccccc5s4)ccc23)CC1 [Example 80, 1-{2-[6-(Benzothiazol-2-yloxy)-benzofuran-3-yl]-ethyl}-piperidine-4-carboxylic acid] |
| 293 | 12 | CC(=O)N1C[C@H]2C[C@@H]1CN2Cc1cc2cc(Oc3nc4ncccc4s3)ccc2o1 [Example 102, (1R,4R)-1-{5-[5-(Thiazolo[4,5-b]pyridin-2-yloxy)-benzofuran-2-ylmethyl]-2,5-diaza-bicyclo[2.2.1]hept-2-yl}-ethanone] |
| 32 | 4 | CS(=O)(=O)N1C[C@@H]2CC[C@H]1CN2Cc1coc2cc(Oc3nc4ncccc4s3)ccc12 [Example 245, (1S,4S)-2-Methanesulfonyl-5-[6-(thiazolo[4,5-b]pyridin-2-yloxy)-benzofuran-3-ylmethyl]-2,5-diaza-bicyclo[2.2.2]octane] |
| 130 | 35 | c1cnc2nc(Oc3ccc4c(CN5CCC(N6CCCC6)CC5)coc4c3)sc2c1 [Example 283, 2-[3-(4-Pyrrolidin-1-yl-piperidin-1-ylmethyl)-benzofuran-6-yloxy]-thiazolo[4,5-b]pyridine formate] |
| 200 | 7 | O=C(C1CCOC1)N1CC2CN(Cc3coc4cc(Oc5nc6ncccc6s5)ccc34)CC2C1 (centres unmarked) [Example 354, (Tetrahydro-furan-3-yl)-{5-[6-(thiazolo[4,5-b]pyridin-2-yloxy)-benzofuran-3-ylmethyl]-hexahydro-pyrrolo[3,4-c]pyrrol-2-yl}-methanone] |
|  | 175 | CCOC(=O)C1CCN(Cc2coc3cc(Oc4nc5ccccc5s4)ccc23)CC1 [Example 223, 1-[6-(Benzothiazol-2-yloxy)-benzofuran-3-ylmethyl]-piperidine-4-carboxylic acid ethyl ester] |
|  | 275 | c1ccc2sc(Oc3ccc4c(CN5CCc6sc7ccccc7c6C5)c[nH]c4c3)nc2c1 [Example 39, 2-[6-(Benzothiazol-2-yloxy)-1H-indol-3-ylmethyl]-1,2,3,4-tetrahydro-benzo[4,5]thieno[3,2-c]pyridine formate] |
|  | 470 | O=C1Cc2ccc(C(F)(F)F)cc2N1Cc1coc2cc(Oc3nc4ncccc4s3)ccc12 [Example 398, 1-[6-(Thiazolo[4,5-b]pyridin-2-yloxy)-benzofuran-3-ylmethyl]-6-trifluoromethyl-1,3-dihydro-indol-2-one] |
|  | 236 | Fc1cccc2sc(Oc3ccc4oc(CN5CCCCC5)cc4c3)nc12 [Example 84, 4-Fluoro-2-(2-piperidin-1-ylmethyl-benzofuran-5-yloxy)-benzothiazole formate] |
|  | 207 | c1cnc2nc(Oc3ccc4cc(CN5CC6COCC6C5)oc4c3)sc2c1 (centres unmarked) [Example 110, 2-[2-(Tetrahydro-furo[3,4-c]pyrrol-5-ylmethyl)-benzofuran-6-yloxy]-thiazolo[4,5-b]pyridine formate] |
|  | 153 | C[C@H]1COCCN1Cc1cc2cc(Oc3nc4ncccc4s3)ccc2o1 [Example 98, (3S)-2-[2-(3-Methyl-morpholin-4-ylmethyl)-benzofuran-5-yloxy]-thiazolo[4,5-b]pyridine] |
|  | 116 | FC1CCN(Cc2cc3ccc(Oc4nc5ncccc5s4)cc3o2)CC1 [Example 190, 2-[2-(4-Fluoro-piperidin-1-ylmethyl)-benzofuran-6-yloxy]-thiazolo[4,5-b]pyridine formate] |
|  | 111 | Clc1cnc2nc(Oc3ccc4c(CN5CCOCC5)c[nH]c4c3)sc2c1 [Example 59, 6-Chloro-2-(3-morpholin-4-ylmethyl-1H-indol-6-yloxy)-thiazolo[4,5-b]pyridine] |
|  | 120 | O=C(NCc1coc2cc(Oc3nc4ncccc4s3)ccc12)[C@@H]1C[C@@H]2CC[C@H]1C2 (relative stereo) [Example 389, endo-Bicyclo[2.2.1]heptane-2-carboxylic acid [6-(thiazolo[4,5-b]pyridin-2-yloxy)-benzofuran-3-ylmethyl]-amide] |
|  | 149 | c1cnc(OC2CCN(Cc3cc4cc(Oc5nc6ncccc6s5)ccc4o3)CC2)nc1 [Example 89, 2-{2-[4-(Pyrimidin-2-yloxy)-piperidin-1-ylmethyl]-benzofuran-5-yloxy}-thiazolo[4,5-b]pyridine] |

| Compound | IC50 [1] [nM] | IC50 [2] [nM] |
| --- | --- | --- |
| CC(=O)N[C@H]1C[C@H]2CC[C@@H](C1)N2Cc1c[nH]c2cc(Oc3nc4ncccc4s3)ccc12 [Example 18, meso-endo-N-{8-[6-(Thiazolo[4,5-b]pyridin-2-yloxy)-1H-indol-3-ylmethyl]-8-aza-bicyclo[3.2.1]oct-3-yl}-acetamide] | 301 | 1 |
| c1cnc2nc(Oc3ccc4oc(CN5CCCCC5)cc4c3)sc2c1 [Example 86, 2-(2-Piperidin-1-ylmethyl-benzofuran-5-yloxy)-thiazolo[4,5-b]pyridine] | 85 | 68 |
| NC(=O)N[C@H]1C[C@H]2CC[C@@H](C1)N2Cc1coc2cc(Oc3nc4ncccc4s3)ccc12 [Example 175, meso-endo-{8-[6-(Thiazolo[4,5-b]pyridin-2-yloxy)-benzofuran-3-ylmethyl]-8-aza-bicyclo[3.2.1]oct-3-yl}-urea] | 176 | 2 |
| CC(=O)N[C@H]1C[C@H]2CC[C@@H](C1)N2Cc1c[nH]c2cc(Oc3nc4c(F)cccc4s3)ccc12 [Example 14, meso-endo-N-{8-[6-(4-Fluoro-benzothiazol-2-yloxy)-1H-indol-3-ylmethyl]-8-aza-bicyclo[3.2.1]oct-3-yl}-acetamide] | 66 |  |
| CC(=O)N[C@H]1C[C@H]2CC[C@@H](C1)N2Cc1cc2ncc(Oc3nc4ncccc4s3)cc2o1 [Example 296, meso-endo-N-{8-[6-(Thiazolo[4,5-b]pyridin-2-yloxy)-furo[3,2-b]pyridin-2-ylmethyl]-8-aza-bicyclo[3.2.1]oct-3-yl}-acetamide formate] |  | 850 |
| CC(=O)N(Cc1coc2cc(Oc3nc4ncccc4s3)ccc12)[C@H]1CN2CCC1CC2 [Example 404, (R)—N-(1-Aza-bicyclo[2.2.2]oct-3-yl)-N-[6-(thiazolo[4,5-b]pyridin-2-yloxy)-benzofuran-3-ylmethyl]-acetamide formate] |  | 2 |
